Paper PMC12203311, “Design, synthesis, in silico and in vitro evaluation of pyrrole–indole hybrids as dual tubulin and aromatase inhibitors with potent anticancer activities” (RSC Advances, 2025)

Legend:
OVCAR-5 = test: NCI60 five-dose screen; assay type: cell-based; conditions: Homo sapiens, OVCAR-5, ovarian cancer; for CC50: read-out: LC50 (the source's name)
SF-539 = test: NCI60 five-dose screen; assay type: cell-based; conditions: Homo sapiens, SF-539, CNS cancer; for CC50: read-out: LC50 (the source's name)
ACHN = test: NCI60 five-dose screen; assay type: cell-based; conditions: Homo sapiens, renal cancer; for CC50: read-out: LC50 (the source's name)
Human CYP19 (aromatase) = target: T1, Human CYP19 (aromatase) (Homo sapiens, UniProt P11511); test: Aromatase inhibition assay (DBF fluorometric substrate); assay type: biochemical; conditions: active defined as IC50 < 12.5 µM
T1 construct: purchased GENTEST, Woburn, MA 456260; host or cells: baculovirus/insect cells
T1 sequence (P11511 1-503): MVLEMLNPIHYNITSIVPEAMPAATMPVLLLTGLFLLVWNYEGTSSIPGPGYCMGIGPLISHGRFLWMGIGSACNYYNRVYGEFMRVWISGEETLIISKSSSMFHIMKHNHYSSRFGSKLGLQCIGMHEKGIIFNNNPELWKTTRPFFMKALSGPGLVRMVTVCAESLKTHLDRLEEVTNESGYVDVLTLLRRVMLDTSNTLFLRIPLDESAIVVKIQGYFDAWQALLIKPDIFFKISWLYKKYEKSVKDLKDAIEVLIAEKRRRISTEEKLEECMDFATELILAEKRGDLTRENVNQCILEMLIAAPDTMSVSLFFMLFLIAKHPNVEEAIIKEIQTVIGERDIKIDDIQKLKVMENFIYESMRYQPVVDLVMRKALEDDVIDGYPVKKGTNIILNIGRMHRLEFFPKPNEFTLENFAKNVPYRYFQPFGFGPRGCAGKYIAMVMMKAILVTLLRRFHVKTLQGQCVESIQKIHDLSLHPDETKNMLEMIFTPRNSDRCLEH
Outline: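 Supersomes expressing human CYP19 plus oxidoreductase (baculovirus/insect cell) with fluorometric substrate DBF; cofactor mixture pre-incubated 10 min at 37 °C, reaction run 30 min at 37 °C, stopped with NaOH. Fluorescence read at ex 490/em 530 nm.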

TK-10 = test: NCI60 five-dose screen; assay type: cell-based; conditions: Homo sapiens, TK-10, renal cancer; for CC50: read-out: LC50 (the source's name)
T-47D = test: NCI60 five-dose screen; assay type: cell-based; conditions: Homo sapiens, T47D, breast cancer; for CC50: read-out: LC50 (the source's name)
SNB-19 = test: NCI60 five-dose screen; assay type: cell-based; conditions: Homo sapiens, SNB-19, CNS cancer; for CC50: read-out: LC50 (the source's name)
EKVX = test: NCI60 five-dose screen; assay type: cell-based; conditions: Homo sapiens, NSC lung cancer; for CC50: read-out: LC50 (the source's name)
HT29 = test: NCI60 five-dose screen; assay type: cell-based; conditions: Homo sapiens, HT-29, HT29, colon cancer; for CC50: read-out: LC50 (the source's name)
[1] = tested on: T47D breast cancer cell line; test: Cytotoxicity MTT assay, T47D; assay type: cell-based, human; conditions: Homo sapiens, T47D; MTT, 48 hours
Outline: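 Both lines were handled identically: 10 000 cells per well, overnight growth, 48 h with compound at the chosen concentrations, then 0.5 mg mL^−1 MTT for 3 h. Dissolved formazan was quantified at 570 nm against vehicle-treated wells.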

HCC-2998 = test: NCI60 five-dose screen; assay type: cell-based; conditions: Homo sapiens, HCC-2998, colon cancer; for CC50: read-out: LC50 (the source's name)
DU-145 = test: NCI60 five-dose screen; assay type: cell-based; conditions: Homo sapiens, DU-145, prostate cancer; for CC50: read-out: LC50 (the source's name)
UACC-62 = test: NCI60 five-dose screen; assay type: cell-based; conditions: Homo sapiens, UACC-62, melanoma; for CC50: read-out: LC50 (the source's name)
NCI/ADR-RES = test: NCI60 five-dose screen; assay type: cell-based, human; conditions: Homo sapiens, ovarian cancer; for CC50: read-out: LC50 (the source's name)
OVCAR-3 = test: NCI60 five-dose screen; assay type: cell-based; conditions: Homo sapiens, OVCAR-3, ovarian cancer; for CC50: read-out: LC50 (the source's name)
MCF7 = test: NCI60 five-dose screen; assay type: cell-based; conditions: Homo sapiens, MCF7, breast cancer; for CC50: read-out: LC50 (the source's name)
SW-620 = test: NCI60 five-dose screen; assay type: cell-based; conditions: Homo sapiens, SW-620, colon cancer; for CC50: read-out: LC50 (the source's name)
NCI-H522 = test: NCI60 five-dose screen; assay type: cell-based; conditions: Homo sapiens, NCI-H522, NSC lung cancer; for CC50: read-out: LC50 (the source's name)
M14 = test: NCI60 five-dose screen; assay type: cell-based; conditions: Homo sapiens, M14, melanoma; for CC50: read-out: LC50 (the source's name)
SK-MEL-2 = test: NCI60 five-dose screen; assay type: cell-based; conditions: Homo sapiens, SK-MEL-2, melanoma; for CC50: read-out: LC50 (the source's name)
MDA-MB-231/ATCC = test: NCI60 five-dose screen; assay type: cell-based; conditions: Homo sapiens, breast cancer; for CC50: read-out: LC50 (the source's name)
K-562 = test: NCI60 five-dose screen; assay type: cell-based; conditions: Homo sapiens, K562, K-562, leukemia; for CC50: read-out: LC50 (the source's name)

## CCOC(=O)c1c[nH]c(/C=N/NC(=O)c2[nH]c3ccc(Br)cc3c2-c2ccccc2)c1 [Derivative 3j, Ethyl (E)-5-((2-(5-bromo-3-phenyl-1H-indole-2-carbonyl)hydrazono)methyl)-1H-pyrrole-3-carboxylate]
OVCAR-5
  GI50: 3.87 µM
  CC50: 42.9 µM
SF-539
  GI50: 2.26 µM
  CC50: 19.4 µM
ACHN
  GI50: 3.39 µM
  CC50: 36.4 µM
Human CYP19 (aromatase)
  IC50: 1.3 ± 0.4 µM
TK-10
  GI50: 7.35 µM
  CC50: 46.2 µM
T-47D
  GI50: 2.91 µM
  CC50: 86.9 µM
SNB-19
  GI50: 4.51 µM
  CC50: 46.1 µM
EKVX
  GI50: 4.57 µM
  CC50: 43.1 µM
HT29
  GI50: 2.59 µM
  CC50: 27.5 µM
[1]
  IC50: 10.4 ± 2.9 µM
HCC-2998
  GI50: 2.18 µM
  CC50: 15.9 µM
DU-145
  GI50: 3.48 µM
  CC50: 35.6 µM
UACC-62
  GI50: 2.92 µM
  CC50: 42.6 µM
NCI/ADR-RES
  GI50: 1.89 µM
  CC50: 10.4 µM
OVCAR-3
  GI50: 2.13 µM
  CC50: 23.1 µM
MCF7
  GI50: 2.76 µM
  CC50: 50.2 µM
SW-620
  GI50: 3.36 µM
  CC50: 76.2 µM
NCI-H522
  GI50: 2.27 µM
  CC50: 33 µM
M14
  GI50: 2.39 µM
  CC50: 50.3 µM
SK-MEL-2
  GI50: 2.8 µM
  CC50: 32.8 µM
MDA-MB-231/ATCC
  GI50: 2.85 µM
  CC50: 36.8 µM
K-562
  GI50: 1.9 µM
  CC50: 57.1 µM

## CCc1ccc(/C=N/NC(=O)c2[nH]c3ccc(Br)cc3c2-c2ccccc2)[nH]1 [Derivative 3s, (E)-5-Bromo-N′-((5-ethyl-1H-pyrrol-2-yl)methylene)-3-phenyl-1H-indole-2-carbohydrazide]
OVCAR-5
  GI50: 0.573 µM
  CC50: 38.7 µM
SF-539
  GI50: 0.225 µM
  CC50: 29.8 µM
ACHN
  GI50: 0.861 µM
  CC50: 36.6 µM
Human CYP19 (aromatase)
  IC50: 4.6 ± 0.5 µM
TK-10
  GI50: 2.91 µM
  CC50: 46.3 µM
T-47D
  GI50: 0.681 µM
  CC50: 52.7 µM
SNB-19
  GI50: 1.82 µM
  CC50: 51.8 µM
EKVX
  GI50: 0.453 µM
  CC50: 43 µM
HT29
  GI50: 0.298 µM
  CC50: 33.8 µM
[1]
  IC50: 3.8 ± 1 µM
HCC-2998
  GI50: 1.45 µM
  CC50: 35.1 µM
DU-145
  GI50: 0.418 µM
  CC50: 36.7 µM
UACC-62
  GI50: 0.381 µM
  CC50: 38.1 µM
NCI/ADR-RES
  GI50: 0.253 µM
  CC50: 30.2 µM
OVCAR-3
  GI50: 0.356 µM
  CC50: 36.1 µM
MCF7
  GI50: 0.369 µM
  CC50: 45.9 µM
SW-620
  GI50: 0.558 µM
  CC50: 43.2 µM
NCI-H522
  GI50: 0.183 µM
  CC50: 28 µM
M14
  GI50: 0.318 µM
  CC50: 38.7 µM
SK-MEL-2
  GI50: 0.647 µM
  CC50: 45.9 µM
MDA-MB-231/ATCC
  GI50: 0.63 µM
  CC50: 48.4 µM
K-562
  GI50: 0.338 µM
  CC50: > 100 µM

## CCc1cc[nH]c1/C=N/NC(=O)c1[nH]c2ccc(Br)cc2c1-c1ccccc1 [Derivative 3u, (E)-5-Bromo-N′-((3-ethyl-1H-pyrrol-2-yl)methylene)-3-phenyl-1H-indole-2-carbohydrazide]
OVCAR-5
  GI50: 6.77 µM
  CC50: 45.4 µM
SF-539
  GI50: 3.17 µM
  CC50: 35.6 µM
ACHN
  GI50: 3.27 µM
  CC50: 36.7 µM
Human CYP19 (aromatase)
  IC50: 9.6 ± 1 µM
TK-10
  GI50: 5.05 µM
  CC50: 41.6 µM
T-47D
  GI50: 2.17 µM
  CC50: 41.9 µM
SNB-19
  GI50: 4.5 µM
  CC50: 42.2 µM
EKVX
  GI50: 2.79 µM
  CC50: 37.7 µM
HT29
  GI50: 2.17 µM
  CC50: 39.3 µM
[1]
  IC50: 6.2 ± 3.6 µM
HCC-2998
  GI50: 4.11 µM
  CC50: 42.4 µM
DU-145
  GI50: 4.3 µM
  CC50: 42.3 µM
UACC-62
  GI50: 2.48 µM
  CC50: 30.8 µM
NCI/ADR-RES
  GI50: 2.68 µM
  CC50: 34.6 µM
OVCAR-3
  GI50: 3.2 µM
  CC50: 44 µM
MCF7
  GI50: 2.63 µM
  CC50: 37.5 µM
SW-620
  GI50: 3.82 µM
  CC50: 43.3 µM
NCI-H522
  GI50: 2.3 µM
  CC50: 34.1 µM
M14
  GI50: 1.62 µM
  CC50: 23.7 µM
SK-MEL-2
  GI50: 6.77 µM
  CC50: 45.8 µM
MDA-MB-231/ATCC
  GI50: 5.02 µM
  CC50: 44.7 µM
K-562
  GI50: 2.27 µM
  CC50: 56.2 µM
